Measured values taken from patent US20260158033A1, “VECABRUTINIB FOR THE TREATMENT OF GRAFT-VERSUS-HOST DISEASE” (Viracta Therapeutics, Inc., priority 2021, published 2026).

Experiments:
[1] = mouse, in vivo
Experimental: (§1) A murine model of sclerodermatous cGVHD was initiated by adoptive transfer of T-cell depleted bone marrow plus whole splenocytes from B10.D2 donors into BALB/c recipients that were previously subjected to sub-lethal irradiation. Total bone marrow and irradiation only groups were included as controls. […] Body weight and clinical symptoms (appearance, activity, skin symptoms, diarrhea, conjunctivitis) were measured throughout the study. Immunophenotyping for B cells and T cells was performed on spleens collected from euthanized mice by flow cytometry at two timepoints (day 40 during treatment and on day 76 post-treatment). Levels of circulating immunoglobulins were measured by multiplex cytokine assay at both timepoints.
(§2) On day 40 (during treatment) and day 76 (post-treatment) groups of mice were euthanized for immunophenotyping analysis utilizing a 22-color flow cytometry panel. […] Scoring between 0-2 was assigned for each of the parameters (appearance, activity, skin symptoms, diarrhea, conjunctivitis) and totaled for each mouse.

[2] = test system: murine model of sclerodermatous cGVHD; assay: Murine model of sclerodermatous cGVHD: clinical GVHD score and symptoms; assay type: in vivo, mouse (BALB/c recipients, B10.D2 donors)
Experimental: as §1, §2

B cells and T cells = assay: Immunophenotyping of spleen B cells and T cells by flow cytometry in cGVHD mice; assay type: in vivo, mouse (BALB/c recipients); settings: during treatment (day 40)
Experimental: as §1, §2

[3] = test system: circulating immunoglobulins; assay: Circulating immunoglobulins by multiplex cytokine assay in cGVHD mice; assay type: in vivo, mouse (BALB/c recipients); settings: during and post treatment, compared to vehicle
Experimental: as §1

BTK = BTK (Homo sapiens, UniProt Q06187); settings: reversible, non-covalent; cited from earlier work
Chain of BTK (Q06187 whole entry, species assumed): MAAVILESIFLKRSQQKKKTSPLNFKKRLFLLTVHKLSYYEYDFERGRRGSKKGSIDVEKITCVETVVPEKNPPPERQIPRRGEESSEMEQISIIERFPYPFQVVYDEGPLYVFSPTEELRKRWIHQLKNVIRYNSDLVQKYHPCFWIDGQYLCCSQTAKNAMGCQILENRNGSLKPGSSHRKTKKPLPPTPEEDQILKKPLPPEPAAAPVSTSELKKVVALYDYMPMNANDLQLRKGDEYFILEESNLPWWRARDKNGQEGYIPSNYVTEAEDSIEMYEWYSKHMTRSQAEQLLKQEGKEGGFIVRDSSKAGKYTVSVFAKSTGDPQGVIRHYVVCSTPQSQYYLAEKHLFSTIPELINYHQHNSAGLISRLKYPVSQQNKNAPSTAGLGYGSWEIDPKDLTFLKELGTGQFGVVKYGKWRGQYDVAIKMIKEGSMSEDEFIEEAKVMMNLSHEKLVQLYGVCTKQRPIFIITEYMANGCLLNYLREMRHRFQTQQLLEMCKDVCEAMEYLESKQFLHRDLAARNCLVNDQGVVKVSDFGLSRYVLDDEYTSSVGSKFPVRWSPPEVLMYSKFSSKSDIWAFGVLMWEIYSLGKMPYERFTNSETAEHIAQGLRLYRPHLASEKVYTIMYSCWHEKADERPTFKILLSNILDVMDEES

ITK = target: T1, ITK (Homo sapiens, UniProt Q08881); settings: ITK expressed in T cells; cited from earlier work
T1 sequence (Q08881 1-620): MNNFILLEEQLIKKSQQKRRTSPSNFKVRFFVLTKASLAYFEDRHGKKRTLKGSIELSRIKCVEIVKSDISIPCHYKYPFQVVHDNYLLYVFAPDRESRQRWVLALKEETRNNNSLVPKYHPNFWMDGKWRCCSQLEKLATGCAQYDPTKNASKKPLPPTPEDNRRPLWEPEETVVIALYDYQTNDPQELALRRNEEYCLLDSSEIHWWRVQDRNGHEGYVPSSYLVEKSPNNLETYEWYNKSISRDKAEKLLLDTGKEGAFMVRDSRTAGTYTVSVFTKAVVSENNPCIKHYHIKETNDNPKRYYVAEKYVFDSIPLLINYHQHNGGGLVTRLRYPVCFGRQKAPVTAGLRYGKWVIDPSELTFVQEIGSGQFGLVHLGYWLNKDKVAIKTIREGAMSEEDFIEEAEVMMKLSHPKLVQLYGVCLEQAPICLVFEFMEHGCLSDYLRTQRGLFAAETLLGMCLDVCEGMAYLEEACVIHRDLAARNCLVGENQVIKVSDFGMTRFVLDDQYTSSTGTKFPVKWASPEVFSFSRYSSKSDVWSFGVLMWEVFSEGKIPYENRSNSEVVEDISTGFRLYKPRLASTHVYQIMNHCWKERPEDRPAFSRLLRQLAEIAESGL

## C=CC(=O)N1CCC[C@@H](n2nc(-c3ccc(Oc4ccccc4)cc3)c3c(N)ncnc32)C1 [Ibrutinib, reference compound]
[1]
  Body weight post-treatment: recovered body weight
  Weight loss during treatment compared to vehicle: slightly elevated

## NC(=O)[C@H]1CCN(c2ncnc(N)c2F)C[C@@H]1N1CCC[C@@H](Nc2cc(Cl)cc(C(F)(F)F)c2)C1=O [Vecabrutinib, (3R,3′R,4'S)-1′-(6-amino-5-fluoropyrimidin-4-yl)-3-((3-chloro-5-(trifluoromethyl)phenyl)amino)-2-oxo-[1,3′-bipiperidine]-4′-carboxamide]
[2]; average clinical GVHD score, 0-2 per parameter (appearance, activity, skin symptoms, diarrhea, conjunctivitis) totaled, Day 58, vecabrutinib 50 mg/kg once daily oral gavage, ibrutinib 30 mg/kg in drinking water, day 27 to 45
  Avg. Score Day 58: 2.50
[2]; average clinical GVHD score, 0-2 per parameter totaled, Day 66, vecabrutinib 50 mg/kg once daily oral gavage, ibrutinib 30 mg/kg in drinking water, day 27 to 45
  Avg. Score Day 66: 1.30
[2]; average clinical GVHD score, 0-2 per parameter totaled, Day 71, vecabrutinib 50 mg/kg once daily oral gavage, ibrutinib 30 mg/kg in drinking water, day 27 to 45
  Avg. Score Day 71: 2.90
[2]; treated groups, vecabrutinib 50 mg/kg oral, ibrutinib 30 mg/kg drinking water
  Clinical symptoms (appearance, activity, skin irritation, redness, alopecia and diarrhea): significantly reduced
[2]; vecabrutinib-treated group vs ibrutinib, small sample size
  Clinical score overall compared to ibrutinib: trend toward a more favorable clinical score overall
[1]
  Body weight post-treatment: recovered body weight
  Weight loss during treatment compared to vehicle: slightly elevated
B cells and T cells
  Activated and proliferating CD4+ and CD8+ T cells: reduced
  B-cell activation: reduced
  B-cell proliferation: reduced
  CD4+ CXCR5+PD-1+ T follicular helper cells: reduced
  CD4+CD25+ FoxP3+ Treg number: reduced
  Cytotoxic granzyme-B+ CD8+ T cells: reduced
  Expression of PD-1 on Tregs: reduced
  Expression of antigen-presentation molecules CD80 and CD86 on B cells: unchanged
  IL-4/5 secreted by B cells: less
  IL-10 secreted by B cells: less
  Number of B220+CD138+ plasma cells: reduced
  Numbers of cytokine secreting CD4+ cells: globally reduced
  Th1/Th2 or Th17/Treg ratios: no differences
  Total B cell numbers: retained
  Total CD3+ T cells: reduced
[3]
  Circulating levels of IgA: reduced
BTK
  BTK inhibition: potent
ITK
  Activity against ITK: demonstrates activity
